The test system of series [1] is cornea. To be noted: 0.05% concentration, after photorefractive keratectomy; cited from earlier work.
For series [2], the system named is corneal neuropathic pain. Put plainly: Treatment of corneal neuropathic pain in patients, drug solution in the fluid reservoir of a scleral lens (BOS-P). Format: in vivo, human. On the procedure: (§1) A patient with well established primary Sjögren's syndrome and severe dry eyes was treated for intense, constant corneal pain using the anesthetic delivery system disclosed herein. Specifically, the patient was treated with bupivacaine and BOS-P devices. The concentration of non-preserved bupivacaine was rapidly titrated using frequent (every 2-5 minutes) drops in the more symptomatic left eye (open label) measuring corneal sensitivity with a Cochet-Bonnet aesthesiometer (with adequate recovery times) until reaching the concentration that avoided any depression of corneal sensitivity. The sub-anesthetic concentration in this patient was determined to be 0.001%. Both BOS-P devices were filled with 0.001% bupivacaine and inserted into the patient's eyes. The patient then left.
The patient was given a vial of 0.01% bupivacaine to dilute 1:10 (e.g., add one drop of 0.01% bupivacaine to nine drops of saline) to fill the reservoir of the left lens prior to inserting it the next morning.
They wore the BOS-P containing 0.001% bupivacaine in their left eye, and the BOS-P containing saline in their right eye unmasked to the patient and doctor, for about 8 hours. […] Corneal sensation in the treated eye was normal. […]

The test system of series [3] is corneal sensation. Put plainly: Corneal sensitivity measured with a Cochet-Bonnet aesthesiometer. Format: in vivo, human.
Excerpt: The sub-hypoesthetic dose for a sodium channel blocker or a sodium channel modulator may vary between patients. […] The sub-hypoesthetic dose of a sodium channel blocker or a sodium channel modulator can be determined for an individual patient by selecting a higher starting concentration and gradually reducing the concentration via titration until reaching a sub-hypoesthetic dose as determined by a contact and non-contact esthesiometer. A non-limiting example of a method of determining corneal sensitivity is Cochet-Bonnet aesthesiometry.
As used herein, the phrases “sub-anesthetic dose” and “sub-anesthetic concentration” refer to a dose of a sodium channel blocker or a sodium channel modulator or a sodium channel modulator that is lower than the anesthetic dose. “Sub-anesthetic dose” and “sub-anesthetic concentration” may be used interchangeably. The sub-anesthetic dose of a sodium channel blocker or a sodium channel modulator may vary between patients. The sub-anesthetic dose of a sodium channel blocker or a sodium channel modulator can be determined for an individual patient by selecting a higher starting concentration and gradually reducing the concentration via titration until reaching a sub-anesthetic dose as determined by a contact and non-contact esthesiometer. A non-limiting example of a starting concentration of a sodium channel blocker or a sodium channel modulator is about 0.02%. In some embodiments, the concentration of the sodium channel blocker or a sodium channel modulator may be titrated down to a concentration that avoids any depression of corneal sensitivity. A non-limiting example of a method of determining corneal sensitivity is Cochet-Bonnet aesthesiometry.
as §1
The patient was given a vial of 0.01% bupivacaine to dilute 1:10 (e.g., add one drop of 0.01% bupivacaine to nine drops of saline) to fill the reservoir of the left lens prior to inserting it the next morning. […]

Series [4] has as its system cornea. Put plainly: Examination of the cornea for adverse effects (fluorescein staining, slit lamp examination, confocal microscopy). The format is in vivo, human. On the procedure: They wore the BOS-P containing 0.001% bupivacaine in their left eye, and the BOS-P containing saline in their right eye unmasked to the patient and doctor, for about 8 hours. […] Corneal sensation in the treated eye was normal.
The patient returned the following day 2 hours after inserting the scleral lenses containing 0.015% ropivacaine.
A patient suffered from severe corneal neuropathic pain for many years, greatly limiting the patient's quality of life. This disease was refractory to previous treatments. Lacosamide was placed in the fluid reservoir of the device where it remained in contact with the cornea while it was worn (approximately 10 hours/day).

Series [5] concerns corneal neuropathic pain. Put plainly: Eye drops without scleral lens for corneal neuropathic pain. To be noted: Example 5, eye drops 0.5% lacosamide. Format: in vivo, human. As for the experimental part:
Eye drops containing 0.5% lacosamide were administered to the eyes of two patients and to the an eye of the inventor. […] Therefore, it is believed that lacosamide may be used in eye drops at a concentration of up to 5% to treat corneal neuropathic pain without depressing corneal sensation.

Consider `CCCOc1ccc(C(=O)OCCN(CC)CC)cc1N` [Proparacaine, proparacaine], for which the “anesthetic effect, toxicity and safety” value in series [1] was “non-anesthetic, non-toxic, and safe for at least one week of use”.
Turning to `CCCCN1CCCCC1C(=O)Nc1c(C)cccc1C` (stereo not shown) [bupivacaine], the “eye comfort reported by patient” value in series [2] (Example 1, next day after both BOS-P devices were filled with 0.001% bupivacaine) was “more comfortable than they had been in 3 months”. In series [2] (Example 1, second day, left lens reservoir filled with non-preserved bupivacaine), the “pain reported by patient at day's end” value was “virtual absence of pain in either eye”. Besides, the “pain after exposure to glass cleaner or white board marker” value in series [2] (Example 1, second day, exposure would ordinarily trigger severe pain) was “little or no pain”. In series [2] (Example 1, third day, 0.001% bupivacaine in left BOS-P, saline in right BOS-P), the “pain reported after about 8 hours of wear” value was “virtually no pain in either eye”. In addition, the “pain, Visual Analog Scale” value in series [2] (Example 1, third day, on arrival) is given as “virtually no pain in either eye”. Also, the “eye symptoms (photosensitivity, burning pain, inability to read)” value in series [2] (Example 2, 0.002% bupivacaine in both BOS-P lenses, at least 12 hours/day, over several weeks) is recorded as “resolved”. The eye symptoms result in series [2] (Example 2, bupivacaine diluted to 0.0014% in BOS-P) is recorded as “resolved”. In series [3] (Example 1, Sjögren's syndrome patient, titration with drops every 2-5 minutes in left eye), the “sub-anesthetic concentration (concentration that avoided any depression of corneal sensitivity)” value came out at 0.001%. In series [3] (in vivo), the “corneal sensation by Cochet-Bonnet aesthesiometry” value is “remained intact”. For the same molecule, in series [4] (in vivo), the “fluorescein staining after lens removal” value is “no significant fluorescein staining in either eye”.
As for `COC[C@@H](NC(C)=O)C(=O)NCc1ccccc1` [lacosamide], the corneal neuropathic pain result in series [2] (Example 4, 0.003% lacosamide in BOS-P, approximately 10 hours/day) is on record as “significantly mitigated”. In series [2] (Example 6, chronic graft versus host disease patient, lacosamide 0.05% in scleral lens reservoir), the “eye and co-morbid pain symptoms” value was “disappeared”. Besides, the “maximum concentration that avoided significant depression of corneal sensation” value in series [3] (Example 4, titration, fluid reservoir of BOS-P) is listed as 0.003%. Moreover, the corneal sensation entry in series [3] (Example 5, eye drops 0.5% lacosamide, two patients and an eye of the inventor) is “did not depress corneal sensation”. The “effects on the corneas by slit lamp examination and confocal microscopy” value in series [4] (Example 4, 0.003% lacosamide in BOS-P) is on record as “without any detrimental effects to the corneas”. In series [5], the “duration of effect, one patient” value is “over four hours”; the “duration of effect, the other patient” value is “over two hours”; the “onset of pain resolution” value is “almost immediately after administration”. Moreover, in series [5] (both patients), the corneal neuropathic pain entry is “complete resolution of corneal neuropathic pain”.
For `CCCN1CCCC[C@H]1C(=O)Nc1c(C)cccc1C` [ropivacaine], the “eye pain and photophobia, lenses worn until midnight the previous day” value in series [2] (Example 3, 0.015% ropivacaine in scleral lenses) was “total resolution of eye pain and photophobia”. Further, the “symptoms at examination, 2 hours after inserting lenses” value in series [2] (Example 3, 0.015% ropivacaine, following day) is on record as “free of symptoms”. Besides, the “eye pain and photosensitivity following application” value in series [2] (Example 3, Stevens-Johnson syndrome patient, 0.015% ropivacaine in scleral lenses, first day) is “rapid mitigation of eye pain and photosensitivity”. Moreover, the “eye pain and photophobia at subsequent examinations” value in series [2] (Example 3, ropivacaine in scleral lenses) was “significant mitigation of eye pain and photophobia”. Besides, in series [3] (in vivo), the “corneal sensitivities at subsequent examinations” value was “normal corneal sensitivities” and the “corneal sensitivity by Cochet-Bonnet aesthesiometer” value is reported as “normal”. Further, in series [4] (in vivo), the “adverse effects on the eyes from the treatment” value is listed as “no adverse effects” and the “treatment-related complications at subsequent examinations” value was “without adverse treatment-related complications”.

Source of the values: patent US20110071630A1, “SODIUM CHANNEL BLOCKER DELIVERY SYSTEM WITH SCLERAL LENS” (Boston Foundation for Sight, priority 2009, published 2011).
